Test results reported in US20100035858A1, “Novel Compositions and Methods for Binding and Inhibiting 5-HT4 Receptor” (Immune Control, Inc., priority 2008, published 2010).
Entries after “also recorded” stand apart in the source; their conditions may differ.

Legend:
[1] = system: Female Lewis rats; assay: Toxicity in Female Lewis rats; assay type: in vivo; conditions: 100 mg/kg ip, in comparison with PBS control
Protocol: The next set of experiments was designed to determine the toxicity of the compounds. Each compound was administered to Female Lewis rats at a dose of 100 mg/kg via ip administration.

[2] = molecular target: T1, 5-HT1A receptor (Homo sapiens, UniProt P08908); assay: 5-HT1A receptor binding; conditions: versus fluphenazine (ICI-1175), FIG. 8
T1 sequence (P08908 1-422): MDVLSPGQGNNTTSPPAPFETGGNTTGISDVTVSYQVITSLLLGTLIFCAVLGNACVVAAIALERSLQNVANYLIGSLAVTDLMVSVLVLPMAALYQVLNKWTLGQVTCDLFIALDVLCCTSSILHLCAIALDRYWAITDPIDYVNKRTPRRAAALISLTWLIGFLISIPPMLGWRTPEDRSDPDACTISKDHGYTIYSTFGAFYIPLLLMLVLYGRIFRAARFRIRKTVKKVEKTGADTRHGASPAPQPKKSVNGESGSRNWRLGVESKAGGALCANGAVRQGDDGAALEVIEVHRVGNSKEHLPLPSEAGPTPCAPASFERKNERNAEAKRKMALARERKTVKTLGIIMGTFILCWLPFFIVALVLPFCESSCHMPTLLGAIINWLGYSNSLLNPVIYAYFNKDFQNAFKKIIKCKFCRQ
Protocol: (§1) The methods employed in this study have been adapted from the scientific literature to maximize reliability and reproducibility. Where presented, IC50 values were determined by a non-linear, least squares regression analysis using the DATA ANALYSIS TOOLBOX (MDL Information Systems, San Leandro, Calif., USA). Where inhibition constants (Ki) are presented, the Ki values were calculated using the equation of Cheng and Prusoff (Cheng, Y., Prusoff, W. H., Biochem. Pharmacol. 22:3099-3108, 1973) or equivalent using the observed IC50 of the tested compound, the concentration of ligand employed in the assay, and historical values for the KD of the ligand.
(§2) The next set of experiments was designed to assess the selective binding of the test compounds to 5-HT receptors. ICI-848, ICI-1259, and ICI-1260 were tested against fluphenazine (ICI-1175) to determine selective binding to 5-HT receptors.

[3] = system: rat model of collagen-induced arthritis; assay: Rat model of collagen-induced arthritis, ankle diameter; assay type: in vivo; conditions: for reduction of ankle diameter: 10 mg/kg ip daily, about 3 days, caliper measurement; for efficacy in reducing ankle diameter compared with Enbrel: rheumatoid arthritis rat model, versus Enbrel
Protocol: The next set of experiments was designed to test the ability of the compounds of the invention on a rat model of collagen-induced arthritis. Briefly, Female Lewis rats were immunized with bovine type 2 collagen 2 mg/mL in 0.01N HAc mixed 1:1 w/ FIA injected id 0.1 mL at each of three sites on back (Rosloniec, E. F., A. H. Kang, L. K. Myers, M. A. Cremer. 1996. Collagen-induced arthritis. R. Coico, and E. Shevach, eds. Current Protocols in Immunology 15.5.1. Weily & Sons, New York.).
FIG. 2 depicts a schematic of the collagen-induced arthritis protocol. Briefly, a test compound of the invention is delivered ip at 10 mg/kg daily, for about 3 days.
FIG. 4 depicts ICI 1260, 1259, 848, 849, 761, 715, and 847 with respect to Enbrel. Additional testing for the effectiveness of compounds ICI 1260, 1259, 848, 849, 761, 715, and 847 at various concentrations (10 mg/kg, 2 mg/kg, 0.4 mg/kg) were conducted, as illustrated in FIGS. 5A-5G. A dose response curve was constructed to illustrate the efficacy of the seven compounds (FIG. 6).

[4] = molecular target: 5-HT2A receptor (Homo sapiens, UniProt P28223); assay: 5-HT2A receptor binding; conditions: versus fluphenazine (ICI-1175), FIG. 8
Protocol: as §1
(§3) The experiments include contacting a serotonin type 1B, 2A, 2B, 2C, 3, 4, 6, and 7 receptor with a test compound and comparing the level of binding of serotonin or a control ligand with that serotonin type 1B, 2A, 2B, 2C, 3, 4, 6, and 7 receptor with the level of serotonin binding or control ligand binding with an otherwise identical serotonin type 1B, 2A, 2B, 2C, 3, 4, 6, and 7 receptor not contacted with the test compound. […] The skilled artisan would also appreciate, in view of the disclosure provided herein, that standard binding assays known in the art, or those to be developed in the future, can be used to assess the binding of serotonin or a control ligand with a serotonin type 1B. 2A, 2B, 2C, 3, 4, 6, and 7 receptor in the presence or absence of the test compound to identify a useful compound.
as §2

[5] = molecular target: 5-HT4 receptor (Homo sapiens, UniProt Q13639); assay: 5-HT4 receptor binding; conditions: versus fluphenazine (ICI-1175), FIG. 8
Protocol: as §1, §3, §2
The next set of experiments was designed to assess the Ki values of the tested compounds.

[6] = molecular target: histamine type 1 receptor (Homo sapiens, UniProt P35367); assay: Binding to non-5-HT receptors: histamine type 1 receptor; conditions: FIG. 12
Protocol: as §1
The next set of experiments was designed to assess the selective binding of the test compounds to non-5-HT receptors. The compounds tested are as follows: ICI-735, 848, 849, 1259, and 1260. […] It was also observed that the compounds that bound well to 5-HT4 receptor also bound well to histamine type 1 receptor.

[7] = system: B-cell neoplastic cell line RPMI 8226; assay: Inhibition of proliferation of RPMI cells; assay type: cell-based; conditions: RPMI cell viability, FIG. 1
Text: The next set of experiments was designed to assess compounds that have low levels of brain penetration for the ability of the test compounds to inhibit cellular proliferation. An exemplary in vitro assay is to screen for the ability of the test compounds to inhibit proliferation of the B-cell neoplastic cell line RPMI 8226 (a plasmacytoma derived from a multiple myeloma patient (Matsuoka, et al., 1967, Proc. Soc. Exp. Biol. Med. 125: 1246-1250). However other cell line can be used such as, U266 (established from an IgE-secreting myeloma patient (Nilsson, et al., 1970, Clin. Exp. Immunol., 7: 477-489) and ARH77 (an EBV transformed plasma cell leukemia (Burk, et al., 1978, Cancer Res. 38: 2508-2513).
FIG. 1 is a graph depicting the effects on the test compounds on RPMI cell viability.

Chain of 5-HT2A receptor (P28223 whole entry): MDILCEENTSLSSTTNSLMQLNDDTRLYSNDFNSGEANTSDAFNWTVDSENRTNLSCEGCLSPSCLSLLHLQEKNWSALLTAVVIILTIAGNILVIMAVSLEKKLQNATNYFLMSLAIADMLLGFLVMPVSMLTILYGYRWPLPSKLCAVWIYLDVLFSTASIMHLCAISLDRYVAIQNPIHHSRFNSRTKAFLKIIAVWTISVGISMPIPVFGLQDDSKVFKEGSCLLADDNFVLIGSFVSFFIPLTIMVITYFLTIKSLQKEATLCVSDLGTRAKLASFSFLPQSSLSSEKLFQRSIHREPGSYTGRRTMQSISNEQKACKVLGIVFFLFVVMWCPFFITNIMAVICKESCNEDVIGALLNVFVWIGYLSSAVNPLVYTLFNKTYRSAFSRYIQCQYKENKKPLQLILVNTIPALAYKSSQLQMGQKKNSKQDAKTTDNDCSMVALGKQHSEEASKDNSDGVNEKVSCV
Chain of histamine type 1 receptor (P35367 whole entry): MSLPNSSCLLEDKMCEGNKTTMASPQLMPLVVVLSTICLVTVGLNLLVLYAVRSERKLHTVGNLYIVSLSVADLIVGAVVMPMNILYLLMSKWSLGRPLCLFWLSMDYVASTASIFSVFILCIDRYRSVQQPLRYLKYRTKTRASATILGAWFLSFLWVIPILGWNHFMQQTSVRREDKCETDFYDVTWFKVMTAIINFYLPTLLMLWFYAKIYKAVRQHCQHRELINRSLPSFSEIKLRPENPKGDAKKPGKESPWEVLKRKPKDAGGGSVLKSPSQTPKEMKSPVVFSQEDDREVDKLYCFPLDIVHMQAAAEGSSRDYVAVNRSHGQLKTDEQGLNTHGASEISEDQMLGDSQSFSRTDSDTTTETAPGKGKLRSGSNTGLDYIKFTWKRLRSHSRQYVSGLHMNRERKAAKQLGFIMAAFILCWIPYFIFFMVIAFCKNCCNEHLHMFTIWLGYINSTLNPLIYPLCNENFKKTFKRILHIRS
Chain of 5-HT4 receptor (Q13639 whole entry): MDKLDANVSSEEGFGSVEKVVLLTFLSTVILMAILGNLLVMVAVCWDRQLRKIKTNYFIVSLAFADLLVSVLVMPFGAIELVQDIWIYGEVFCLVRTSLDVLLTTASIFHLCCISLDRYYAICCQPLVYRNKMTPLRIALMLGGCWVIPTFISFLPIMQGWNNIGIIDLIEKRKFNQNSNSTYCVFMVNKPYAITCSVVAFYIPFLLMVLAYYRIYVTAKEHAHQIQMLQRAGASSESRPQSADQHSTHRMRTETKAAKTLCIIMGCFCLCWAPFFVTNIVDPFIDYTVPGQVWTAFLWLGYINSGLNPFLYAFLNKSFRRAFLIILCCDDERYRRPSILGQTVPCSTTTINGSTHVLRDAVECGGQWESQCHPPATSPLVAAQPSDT

Row | SMILES | toxicity [1] | binding to 5-HT1A receptor compared to fluphenazine [2] | reduction of ankle diameter ([3]; listed as ICI-848) | efficacy in reducing ankle diameter compared with Enbrel [3] | binding to 5-HT2A receptor compared to fluphenazine [4] | binding to 5-HT4 receptor compared to fluphenazine [5] | binding to histamine type 1 receptor [6] | ability to inhibit proliferation of RPMI cells [7] | reduction of ankle diameter ([3]; listed as ICI-1259) | reduction of ankle diameter ([3]; listed as ICI-1260) | ability to inhibit proliferation of RPMI cells ([7]; listed as ICI-1260)
1 | NCC(=O)NCCN1CCC(CCCN2c3ccccc3Sc3ccc(C(F)(F)F)cc32)CC1 [ICI-00848] | not toxic | decreased binding | decrease the ankle diameter to a desirable level; also recorded: most desirable reduction of ankle diameter | more effective in reducing the ankle diameter than Enbrel | decreased binding | increased binding | able to bind histamine type 1 receptor | able to inhibit the proliferation of RPMI cells |  |  | 
2 | CNCC(=O)NCCCN1CCC(CCCN2c3ccccc3Sc3ccc(C(F)(F)F)cc32)CC1 [ICI-01259] | not toxic | decreased binding |  | more effective in reducing the ankle diameter than Enbrel | decreased binding | increased binding | able to bind histamine type 1 receptor | able to inhibit the proliferation of RPMI cells | decrease the ankle diameter to a desirable level; also recorded: most desirable reduction of ankle diameter |  | 
3 | NCC(=O)NCCCN1CCC(CCCN2c3ccccc3Sc3ccc(C(F)(F)F)cc32)CC1 [ICI-01260] | not toxic | decreased binding |  | more effective in reducing the ankle diameter than Enbrel | decreased binding | increased binding | able to bind histamine type 1 receptor |  |  | decrease the ankle diameter to a desirable level; also recorded: most desirable reduction of ankle diameter | able to inhibit the proliferation of RPMI cells
